Measurements reported in paper PMC9415731, “Evaluation of PepT1 (SLC15A1) Substrate Characteristics of Therapeutic Cyclic Peptides” (Pharmaceutics, 2022).
Where two headings read alike, the source gives them in different places. Numbered stars: 1 amine (or outer) side, 2 acyl side, 3 side chain; on linkers, the order of the positions; unused ones are H or OH. Square brackets hold non-standard residues; d marks the D form. Side chains are listed from the residue outwards. Peptide text beside a SMILES is read from it. * marks the point of attachment. Ethylenediamine = C(CN[*:2])N[*:1]; Hyp = O=C(O)[C@@H]1C[C@@H](O)CN1; Phg = N[C@H](C(=O)O)c1ccccc1; CO = O=C([*:1])[*:2]; Bn = c1ccc(C*)cc1

Legend:
hPepT1 (SLC15A1) [1] = target: T1, hPepT1 (SLC15A1) (Homo sapiens, UniProt P46059); assay: Inhibition of Gly-Sar uptake in hPepT1 overexpressing CHO-K1 clones (semi-high-throughput 96-well assay); format: cell-based
T1 construct: host or cells: CHO-K1 (clones CHO-hPepT1-M5 and CHO-hPepT1-200)
T1 sequence (P46059 1-708): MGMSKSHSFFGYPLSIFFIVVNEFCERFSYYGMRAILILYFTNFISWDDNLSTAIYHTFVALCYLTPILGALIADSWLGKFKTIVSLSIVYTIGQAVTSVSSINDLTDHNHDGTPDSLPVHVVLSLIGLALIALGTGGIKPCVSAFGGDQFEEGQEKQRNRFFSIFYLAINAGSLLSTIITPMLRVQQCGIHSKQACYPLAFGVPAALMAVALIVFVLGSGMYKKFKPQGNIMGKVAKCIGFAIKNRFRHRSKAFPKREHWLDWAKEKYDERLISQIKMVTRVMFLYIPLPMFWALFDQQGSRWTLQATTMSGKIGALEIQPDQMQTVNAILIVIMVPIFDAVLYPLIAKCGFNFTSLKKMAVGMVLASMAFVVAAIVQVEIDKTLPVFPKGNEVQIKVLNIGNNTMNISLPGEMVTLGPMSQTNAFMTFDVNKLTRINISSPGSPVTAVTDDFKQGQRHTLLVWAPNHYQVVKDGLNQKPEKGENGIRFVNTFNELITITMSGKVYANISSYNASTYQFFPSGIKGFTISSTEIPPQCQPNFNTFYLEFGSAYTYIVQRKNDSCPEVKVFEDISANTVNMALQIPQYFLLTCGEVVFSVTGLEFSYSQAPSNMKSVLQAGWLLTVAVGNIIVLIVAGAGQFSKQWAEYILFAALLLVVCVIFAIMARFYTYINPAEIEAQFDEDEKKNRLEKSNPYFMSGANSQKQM
Protocol: In a second step, inhibition of hPepT1 by losartan, one of the strongest inhibitors of this transporter, was tested in both clones. Inhibition experiments were conducted as previously described at a Gly-Sar concentration of 20 µM [13]. In brief, cells were seeded in 96-well plates 1 d before the assay at a concentration of 5 × 10^4 per well. On the day of the inhibition experiment, cells were washed once with MES buffer (100 µL/well) and subsequently incubated with 20 µM Gly-Sar and losartan (0.1–5000 µM), all prepared in MES buffer. After an incubation period of 10 min at 37 °C on a rotary shaker (450 rpm), transport was terminated by removing the solution and washing the cells with ice-cold MES buffer thrice while the plate was kept on ice. Afterwards, cells were lysed in the 96-well cell culture plate with aqueous NH4OH (10%, 50 µL/well), and sample preparation was performed as described previously. Inhibition in the clone CHO-hPepT1-M5 was also tested with Gly-Pro (0.1–5000 µM) as described for losartan.
The cyclic peptides were first evaluated for hPepT1 inhibition with the semi-high-throughput assay in 96-well plates established and validated earlier, but using CHO-hPepT1-M5 instead of Caco-2 cells. Cells were seeded 2 d before the assay at a concentration of 5 × 10^4/well, and the assay was conducted as published previously. Each concentration was tested in octuplet, and each experiment performed thrice.
(§1) Nonlinear regression curves were calculated with GraphPad Prism version 9.3.1 (GraphPad Software Inc., La Jolla, CA, USA) using the four-parameter fit (sigmoidal dose-response curves with variable slope) for inhibition experiments of a one-phase association nonlinear curve fit for the Gly-Sar uptake. […] A p-value < 0.05 was considered significant.

hPepT1 (SLC15A1) [2] = target: T1, hPepT1 (SLC15A1); assay: Uptake of cyclic peptides in CHO-hPepT1-M5 cells compared with parental CHO-K1 cells, with and without Gly-Pro; format: cell-based; conditions: for hPepT1 substrate characteristics (conclusion): uptake in CHO-hPepT1-M5 vs CHO-K1 cells, with and without Gly-Pro
Protocol: For investigating the possible hPepT1 substrate characteristics of the cyclic peptides, their uptake was measured in the CHO-hPepT1-M5 clone with and without inhibition by Gly-Pro and compared with the CHO-K1 parental clone.
For each sample, 5 × 10^5 cells were suspended in 1.5 mL low-binding reaction tubes and washed once in MES buffer. Subsequently, cells were incubated in 100 µL of the respective cyclic peptide solution in MES with or without 20 mM Gly-Pro at 37 °C for 10 min on a rotary shaker (450 rpm). Cells were then washed twice with 0.4 mL ice-cold MES buffer before further proceeding as described in Section 2.8. Each concentration was tested in triplicate, and the experiment was conducted at least thrice.
Cell lysis was performed with 50 µL of 10% aqueous ammonia, and the lysates acidified with 50 µL of 20% aqueous FA to ensure stability of the peptide therapeutics during sample processing. Sample preparation and UPLC–MS/MS measurements were performed as previously described for plasma.
as §1

[3] = oral, Beagle dogs; ref Sauter et al., unpublished data; cited from earlier work
[4] = CHO-hPepT1-M5 cells, 20 µM Gly-Sar, inhibitor 0.1-5000 µM, MES buffer pH 6.0, 10 min, 37 °C, UPLC-MS/MS, mean ± S.E.M. of three independent experiments, each concentration in sextuplets, read-out: IC50 for inhibition of the Gly-Sar uptake

| IC50 (hPepT1 (SLC15A1) [1]; [4]) [µM] | Inhibition of the Gly-Sar uptake, shape of inhibition curve (hPepT1 (SLC15A1) [1]; CHO-hPepT1-200 cells, 20 µM Gly-Sar, losartan 0.1-5000 µM, MES buffer pH 6.0, 10 min, 37 °C, compared with CHO-hPepT1-M5) | SMILES | IC50 (hPepT1 (SLC15A1) [1]) [µM] | hPepT1 substrate characteristics (conclusion) (hPepT1 (SLC15A1) [2]) | Bioavailability [3] [%] | Difference in uptake between cells without (CHO-K1) and with hPepT1 overexpression (CHO-hPepT1-M5) (hPepT1 (SLC15A1) [2]; 5 x 10^5 cells in suspension, MES buffer pH 6, 10 min, 37 °C, intracellular quantification by UPLC-MS/MS, three experiments in triplicate, two-way ANOVA with Bonferroni post hoc test) | Influence of the PepT1 inhibitor Gly-Pro on the uptake (hPepT1 (SLC15A1) [2]; with or without 20 mM Gly-Pro, CHO-hPepT1-M5 and CHO-K1 cells, MES buffer pH 6, 10 min, 37 °C, UPLC-MS/MS, three experiments in triplicate) |
| --- | --- | --- | --- | --- | --- | --- | --- |
| 196 ± 41 |  | NCC(=O)N1CCC[C@H]1C(=O)O [Gly-Pro] (H-Gly-Pro-OH) |  |  |  |  |  |
| 37 ± 4.8 | the inhibition curve was much flatter | CCCCc1nc(Cl)c(CO)n1Cc1ccc(-c2ccccc2-c2nn[nH]n2)cc1 [losartan] |  |  |  |  |  |
|  |  | C[C@@H](O)[C@@H]1NC(=O)[C@H](CCCCN)NC(=O)[C@@H](Cc2c[nH]c3ccccc23)NC(=O)[C@H](Cc2ccccc2)NC(=O)[C@@H](NC(=O)[C@H](N)Cc2ccccc2)CSSC[C@@H](C(=O)N[C@H](CO)[C@@H](C)O)NC1=O [octreotide] | 4200 ± 1600 | not transported by hPepT1 | > 1 |  |  |
|  |  | NCCCC[C@@H]1NC(=O)[C@@H](Cc2c[nH]c3ccccc23)NC(=O)[C@H](c2ccccc2)NC(=O)[C@@H]2C[C@@H](OC(=O)NCCN)CN2C(=O)[C@H](Cc2ccccc2)NC(=O)[C@H](Cc2ccc(OCc3ccccc3)cc2)NC1=O [pasireotide] (cyclo([Hyp]([CO-Ethylenediamine])[Phg][dW]KY(Bn)F)) | 530 ± 110 | not transported by hPepT1 | > 1 | no obvious difference in the uptake | no significant influence on the uptake |
